We go through 22 molecules from patent US20250011331A1 (Nimbus Saturn, Inc., priority 2021, published 2025).

In the assay the target is T1, HPK1 (Homo sapiens, UniProt Q92918).
T1 construct: purchased Invitrogen
T1 sequence (Q92918 whole entry): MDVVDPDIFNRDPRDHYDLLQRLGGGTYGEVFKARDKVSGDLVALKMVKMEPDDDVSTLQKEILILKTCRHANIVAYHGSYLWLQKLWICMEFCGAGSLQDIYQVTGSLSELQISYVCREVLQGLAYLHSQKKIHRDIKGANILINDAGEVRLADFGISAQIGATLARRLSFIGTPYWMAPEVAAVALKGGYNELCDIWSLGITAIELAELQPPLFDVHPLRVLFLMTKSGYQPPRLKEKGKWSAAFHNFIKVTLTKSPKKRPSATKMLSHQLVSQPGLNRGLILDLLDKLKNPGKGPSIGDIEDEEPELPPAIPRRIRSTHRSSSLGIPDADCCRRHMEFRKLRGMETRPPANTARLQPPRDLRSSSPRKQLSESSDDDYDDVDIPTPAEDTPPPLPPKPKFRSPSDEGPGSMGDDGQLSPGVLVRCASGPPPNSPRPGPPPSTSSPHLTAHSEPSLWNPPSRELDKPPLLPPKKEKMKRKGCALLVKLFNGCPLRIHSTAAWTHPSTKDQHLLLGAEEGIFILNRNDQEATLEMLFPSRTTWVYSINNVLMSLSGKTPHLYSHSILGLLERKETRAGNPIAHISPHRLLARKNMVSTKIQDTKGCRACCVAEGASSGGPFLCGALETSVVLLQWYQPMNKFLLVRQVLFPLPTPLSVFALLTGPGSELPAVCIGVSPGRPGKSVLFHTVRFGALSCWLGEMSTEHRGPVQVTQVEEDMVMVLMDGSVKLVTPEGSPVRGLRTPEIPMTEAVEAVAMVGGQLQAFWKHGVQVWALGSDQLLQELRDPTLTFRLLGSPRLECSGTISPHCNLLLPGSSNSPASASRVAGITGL
The assay can be described thus: HPK1 biochemical enzyme assay (microfluidic mobility shift). Particulars: 1.5 nM HPK1 (Invitrogen), 1 mM ATP, 30 min preincubation, 60 min at RT, Caliper EZ Reader. As for the experimental part: HPK1 biochemical enzyme assay: HPK1 enzyme inhibition was measured using a microfluidic mobility shift assay. Reactions were performed in a 384-well plate, containing 1.5 nM HPK1 (Invitrogen), in assay buffer (Cama Biosciences; pH 7.4). Test compounds were titrated in ten point curves (top final assay concentration 3 μM), and preincubated with enzyme/substrate mix for 30 min prior to initiation of the reaction by addition of ATP (1 mM final concentration) and substrate (1 μM final concentration; Carna Biosciences) diluted in assay buffer supplemented by MgCl2 (final assay concentration of 5 mM). Following 60 min incubation at RT, the reaction was terminated by addition of 60 μl/well termination buffer (Carna Biosciences) and signal determination using a Caliper EZ Reader (Perkin Elmer, UK).
One may read the IC50 as the concentration needed to halve the response being measured. Regarding `CO[C@@]1(c2ccc(Nc3ccc(-c4cnc5cc(F)ccn45)c4c3C(=O)NC4)nc2CN(C)C)CCOC1` (single isomer, unassigned) [Compound I-20], the half-inhibitory concentration (IC50) was at most 0.1 µM. To `CN(C)Cc1cc(C2CCOCC2)cc(Nc2ccc(-c3cnc4cc(F)ccn34)c3c2C(=O)NC3)n1` [Compound I-39, 7-((6-((dimethylamino)methyl)-4-(tetrahydro-2H-pyran-4-yl)pyridin-2-yl)amino)-4-(7-fluoroimidazo[1,2-a]pyridin-3-yl)isoindolin-1-one] belongs at most 0.1 µM.

With `CN(C)Cc1nc(Nc2ccc(-c3cnc4cc(F)ccn34)c3c2C(=O)NC3)ccc1N1CCOC(C)(C)C1=O` [Compound I-23], the half-maximal inhibitory concentration (IC50) was at most 0.1 µM. To `CO[C@H]1CCN(Cc2nc(Nc3ccc(-c4cnc5cc(F)ccn45)c4c3C(=O)NC4)ccc2C2CCN(C)C(=O)C2)C1` (stereo partly drawn) [Compound I-44, 4-(7-fluoroimidazo[1,2-a]pyridin-3-yl)-7-[[6-[[(3S)-3-methoxypyrrolidin-1-yl]methyl]-5-(1-methyl-2-oxo-4-piperidyl)-2-pyridyl]amino]isoindolin-1-one] belongs at most 0.1 µM; to `CN(C)Cc1cc(C2CCOC2)cc(Nc2ccc(-c3cnc4cc(F)ccn34)c3c2C(=O)NC3)n1` (stereo not shown) [Compound I-46], over 1 µM; to `C[C@H](OC1CCOCC1)c1ccc(Nc2ccc(-c3cnc4cc(F)ccn34)c3c2C(=O)NC3)nc1CN(C)C` (single isomer, unassigned) [Compound I-26], at most 0.1 µM. As for `C[C@@H](OC1CCC1)c1ccc(Nc2ccc(-c3cnc4cnccn34)c3c2C(=O)NC3)nc1CN(C)C` [Compound I-29], the 50% inhibitory concentration (IC50) is at most 0.1 µM. To `C[C@@H](O)c1ccc(Nc2ccc(-c3cnc4cc(F)ccn34)c3c2C(=O)NC3)nc1CN(C)C` [Compound I-9, (R)-7-((6-((dimethylamino)methyl)-5-(1-hydroxyethyl)pyridin-2-yl)amino)-4-(7-fluoroimidazo[1,2-a]pyridin-3-yl)isoindolin-1-one] belongs at most 0.1 µM; to `CN1CCN(C(=O)[C@H]2CCOC2)c2ccc(Nc3ccc(-c4cnc5cc(F)ccn45)c4c3C(=O)NC4)nc2C1` (single isomer, unassigned) [Compound I-18], 0.1 to 1 µM. As for `CN(C)Cc1nc(Nc2ccc(-c3cnc4cc(F)ccn34)c3c2C(=O)NC3)ccc1[C@@H]1COCCO1` (single isomer, unassigned) [Compound I-15], the IC50 was at most 0.1 µM.

On to `CN(C)CCc1nc(Nc2cnc(-c3ccnc4c3ccn4C)c3c2C(=O)NC3)ccc1C1CCOCC1` [Compound I-13, 7-((6-(2-(dimethylamino)ethyl)-5-(tetrahydro-2H-pyran-4-yl)pyridin-2-yl)amino)-4-(1-methyl-1H-pyrrolo[2,3-b]pyridin-4-yl)-2,3-dihydro-1H-pyrrolo[3,4-c]pyridin-1-one], for which the 50% inhibitory concentration (IC50) is at most 0.1 µM.

On to `Cc1cncc2ncc(-c3ccc(Nc4ccc([C@H]5CCOC5)c(CN(C)C)n4)c4c3CNC4=O)n12` (single isomer, unassigned) [Compound I-28], for which the IC50 was at most 0.1 µM. In the case of `C[C@@H](OC1CCOCC1)c1ccc(Nc2ccc(-c3cnc4cc(F)ccn34)c3c2C(=O)NC3)nc1CN(C)C` (single isomer, unassigned) [Compound I-24] it was at most 0.1 µM; in that of `CN1CCN(C(=O)[C@@H]2CCOC2)c2ccc(Nc3ccc(-c4cnc5cc(F)ccn45)c4c3C(=O)NC4)nc2C1` (single isomer, unassigned) [Compound I-17], 0.1 to 1 µM; in that of `CN(C)Cc1nc(Nc2ccc(-c3cnc4cc(F)ccn34)c3c2C(=O)NC3)ccc1C1CCCC1` [Compound I-22], at most 0.1 µM. To `CN(C)Cc1nc(Nc2ccc(-c3cnc4cc(F)ccn34)c3c2C(=O)NC3)ccc1[C@]1(C)CCCO1` (single isomer, unassigned) [Compound I-6] belongs at most 0.1 µM. In the case of `C[C@H](c1nc(Nc2ccc(-c3cnc4cc(F)ccn34)c3c2C(=O)NC3)ccc1C1CCOCC1)N(C)C` [Compound I-7, (R)-7-((6-(1-(dimethylamino)ethyl)-5-(tetrahydro-2H-pyran-4-yl)pyridin-2-yl)amino)-4-(7-fluoroimidazo[1,2-a]pyridin-3-yl)isoindolin-1-one] it was 0.1 to 1 µM; in that of `CN(C)Cc1nc(Nc2ccc(-c3cnc4cc(C#N)ccn34)c3c2C(=O)NC3)ccc1C1CCOC1` (stereo not shown) [Compound I-47, 3-[7-[[6-[(dimethylamino)methyl]-5-tetrahydrofuran-3-yl-2-pyridyl]amino]-1-oxo-isoindolin-4-yl]imidazo[1,2-a]pyridine-7-carbonitrile], at most 0.1 µM; in that of `CN(C)Cc1cc(C2CCOC2)cc(Nc2ccc(-c3cnc4cc(F)ccn34)c3c2C(=O)NC3)n1` (single isomer, unassigned) [Compound I-45], at most 0.1 µM. Consider `CO[C@]1(c2ccc(Nc3ccc(-c4cnc5cc(F)ccn45)c4c3C(=O)NC4)nc2CN(C)C)CCOC1` (single isomer, unassigned) [Compound I-21], for which the half-maximal inhibitory concentration (IC50) was at most 0.1 µM. In the case of `C[C@H](c1ccc(Nc2ccc(-c3cnc4cnccn34)c3c2C(=O)NC3)nc1CN(C)C)C1CCOCC1` [Compound I-37] it was at most 0.1 µM; in that of `C[C@@H](c1ccc(Nc2ccc(-c3cnc4cnccn34)c3c2C(=O)NC3)nc1CN(C)C)C1CCOCC1` [Compound I-36], at most 0.1 µM.
